Test results published in PubChem BioAssay (NCI).
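The concentration for 50% growth inhibition is given as GI50. At the TGI there is no net growth.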

Legend:
Experiment in all cases: NCI tumour cell line growth inhibition, 384-well format
[1] = test system: SNB-75 CNS
[2] = test system: HT29 colon
[3] = test system: OVCAR-5 ovarian
[4] = test system: NCI-H322M lung
[5] = test system: CAKI-1 renal
[6] = test system: HL-60(TB) leukemia
[7] = test system: SW-620 colon
[8] = test system: NCI-H23 lung
[9] = test system: NCI-H226 lung
[10] = test system: HOP-92 NSCLC
[11] = test system: OVCAR-8 ovarian
[12] = test system: HOP-62 NSCLC
[13] = test system: SK-MEL-28 melanoma
[14] = test system: MCF7 breast
[15] = test system: HCT-116 colon
[16] = test system: SK-MEL-2 melanoma
[17] = test system: MDA-MB-468 breast
[18] = test system: U251 glioblastoma
[19] = test system: 786-0 renal
[20] = test system: MDA-MB-231 breast
[21] = test system: UACC-257 melanoma
[22] = test system: EKVX NSCLC
[23] = test system: RXF 393 renal
[24] = test system: KM12 colon
[25] = test system: SNB-19 CNS
[26] = test system: PC-3 prostate
[27] = test system: DU-145 prostate
[28] = test system: TK-10 renal
[29] = test system: COLO 205 colon
[30] = test system: T-47D breast
[31] = test system: A498 renal
[32] = test system: SF-268 CNS
[33] = test system: M14 melanoma
[34] = test system: ACHN renal
[35] = test system: SK-MEL-5 melanoma
[36] = test system: NCI-H460 NSCLC
[37] = test system: SR leukemia
[38] = test system: HCT-15 colon
[39] = test system: MDA-MB-435 melanoma
[40] = test system: UACC-62 melanoma
[41] = test system: SK-OV-3 ovarian
[42] = test system: BT-549 breast
[43] = test system: NCI-H522 lung
[44] = test system: SF-295 CNS
[45] = test system: SN12C renal
[46] = test system: A549 NSCLC
[47] = test system: K-562 leukemia
[48] = test system: OVCAR-3 ovarian
[49] = test system: MALME-3M melanoma
[50] = test system: SF-539 CNS
[51] = test system: UO-31 renal
[52] = test system: HS 578T breast
[53] = test system: IGROV1 ovarian

## Cc1ncnc2c1ccn2[C@@H]1C[C@H](Oc2cc(C(F)F)c(F)c3c2CNCC3)[C@@H](O)[C@H]1O
[1]
  GI50: 20.8 µM
  TGI: 88.6 µM
[2]
  GI50: 14 µM
  TGI: > 100 µM
[3]
  GI50: > 100 µM
  TGI: > 100 µM
[4]
  GI50: 24.2 µM
  TGI: > 100 µM
[5]
  GI50: 19.1 µM
  TGI: > 100 µM
[6]
  GI50: 17 µM
  TGI: 30.8 µM
[7]
  GI50: 33.3 µM
  TGI: > 100 µM
[8]
  GI50: 12.9 µM
  TGI: 52.1 µM
[9]
  GI50: 25.7 µM
  TGI: > 100 µM
[10]
  GI50: 28.1 µM
  TGI: > 100 µM
[11]
  GI50: 87.5 µM
  TGI: > 100 µM
[12]
  GI50: 28.2 µM
  TGI: > 100 µM
[13]
  GI50: 17.2 µM
  TGI: 42.3 µM
[14]
  GI50: 6.49 µM
  TGI: > 100 µM
[15]
  GI50: 15 µM
  TGI: 63.3 µM
[16]
  GI50: 22.1 µM
  TGI: 50.1 µM
[17]
  GI50: 6.74 µM
  TGI: 35.2 µM
[18]
  GI50: 31.6 µM
  TGI: > 100 µM
[19]
  GI50: 23.6 µM
  TGI: > 100 µM
[20]
  GI50: 39.2 µM
  TGI: > 100 µM
[21]
  GI50: 13.5 µM
  TGI: 27.6 µM
[22]
  GI50: 12.8 µM
  TGI: 96 µM
[23]
  GI50: 3.75 µM
  TGI: 24.9 µM
[24]
  GI50: 0.0943 µM
  TGI: > 100 µM
[25]
  GI50: > 100 µM
  TGI: > 100 µM
[26]
  GI50: 19.8 µM
  TGI: > 100 µM
[27]
  GI50: 82.9 µM
  TGI: > 100 µM
[28]
  GI50: 25.5 µM
  TGI: > 100 µM
[29]
  GI50: 46.5 µM
  TGI: > 100 µM
[30]
  GI50: 1.92 µM
  TGI: 37.6 µM
[31]
  GI50: 19.3 µM
  TGI: > 100 µM
[32]
  GI50: 29 µM
  TGI: > 100 µM
[33]
  GI50: 18.4 µM
  TGI: 38.4 µM
[34]
  GI50: 39.6 µM
  TGI: > 100 µM
[35]
  GI50: 5.57 µM
  TGI: 20.6 µM
[36]
  GI50: 0.221 µM
  TGI: > 100 µM
[37]
  TGI: 12.2 µM
[38]
  GI50: 30.5 µM
  TGI: > 100 µM
[39]
  GI50: 38.4 µM
  TGI: > 100 µM
[40]
  GI50: 12.5 µM
  TGI: 53.3 µM
[41]
  GI50: 41.9 µM
  TGI: > 100 µM
[42]
  GI50: 24.7 µM
  TGI: > 100 µM
[43]
  GI50: 33 µM
  TGI: > 100 µM
[44]
  GI50: 18.9 µM
  TGI: 59.8 µM
[45]
  GI50: 49.9 µM
  TGI: > 100 µM
[46]
  GI50: 57.8 µM
  TGI: > 100 µM
[47]
  GI50: 11.1 µM
  TGI: 23.8 µM
[48]
  GI50: 17.7 µM
  TGI: > 100 µM
[49]
  GI50: 15.5 µM
  TGI: 31.3 µM
[50]
  GI50: 36.2 µM
  TGI: > 100 µM
[51]
  GI50: 26.4 µM
  TGI: > 100 µM
[52]
  GI50: 19.3 µM
  TGI: > 100 µM
[53]
  GI50: 57.1 µM
  TGI: > 100 µM
